# In the OligoGym collection:
# Oligonucleotides are given in HELM: sugar(base)linkage, 5' to 3'; d 2'-deoxyribose, r ribose, m 2'-O-methylribose, p phosphate. ss, as = sense and antisense strand
# Target: CDC34
# Assay: reporter assay of Huesken 2005
# Details: siRNA
# Also: test concentration or dose not given here.
row,Substance,normalised inhibition (eCFP-eYFP dual reporter) [%]
1,RNA1{r(G)p.r(C)p.r(G)p.r(A)p.r(U)p.r(C)p.r(U)p.r(A)p.r(U)p.r(A)p.r(C)p.r(A)p.r(A)p.r(C)p.r(U)p.r(G)p.r(G)p.r(G)p.r(A)p.d(T)p.d(T)}|RNA2{r(U)p.r(C)p.r(C)p.r(C)p.r(A)p.r(G)p.r(U)p.r(U)p.r(G)p.r(U)p.r(A)p.r(U)p.r(A)p.r(G)p.r(A)p.r(U)p.r(C)p.r(G)p.r(C)p.d(C)p.d(C)}$$$RNA1{StrandType:ss}|RNA2{StrandType:as}$,74
2,RNA1{r(C)p.r(C)p.r(C)p.r(A)p.r(A)p.r(C)p.r(A)p.r(C)p.r(C)p.r(U)p.r(U)p.r(C)p.r(U)p.r(C)p.r(G)p.r(C)p.r(C)p.r(C)p.r(G)p.d(T)p.d(T)}|RNA2{r(C)p.r(G)p.r(G)p.r(G)p.r(C)p.r(G)p.r(A)p.r(G)p.r(A)p.r(A)p.r(G)p.r(G)p.r(U)p.r(G)p.r(U)p.r(U)p.r(G)p.r(G)p.r(G)p.d(C)p.d(T)}$$$RNA1{StrandType:ss}|RNA2{StrandType:as}$,45.9
3,RNA1{r(G)p.r(A)p.r(C)p.r(U)p.r(A)p.r(C)p.r(C)p.r(C)p.r(A)p.r(U)p.r(A)p.r(C)p.r(U)p.r(C)p.r(U)p.r(C)p.r(C)p.r(A)p.r(C)p.d(T)p.d(T)}|RNA2{r(G)p.r(U)p.r(G)p.r(G)p.r(A)p.r(G)p.r(A)p.r(G)p.r(U)p.r(A)p.r(U)p.r(G)p.r(G)p.r(G)p.r(U)p.r(A)p.r(G)p.r(U)p.r(C)p.d(G)p.d(A)}$$$RNA1{StrandType:ss}|RNA2{StrandType:as}$,65.9
4,RNA1{r(G)p.r(A)p.r(C)p.r(G)p.r(A)p.r(G)p.r(G)p.r(G)p.r(C)p.r(U)p.r(C)p.r(A)p.r(G)p.r(A)p.r(C)p.r(C)p.r(U)p.r(C)p.r(U)p.d(T)p.d(T)}|RNA2{r(A)p.r(G)p.r(A)p.r(G)p.r(G)p.r(U)p.r(C)p.r(U)p.r(G)p.r(A)p.r(G)p.r(C)p.r(C)p.r(C)p.r(U)p.r(C)p.r(G)p.r(U)p.r(C)p.d(G)p.d(G)}$$$RNA1{StrandType:ss}|RNA2{StrandType:as}$,51.7
5,RNA1{r(A)p.r(A)p.r(G)p.r(A)p.r(U)p.r(G)p.r(U)p.r(G)p.r(G)p.r(C)p.r(A)p.r(C)p.r(C)p.r(C)p.r(U)p.r(A)p.r(A)p.r(C)p.r(A)p.d(T)p.d(T)}|RNA2{r(U)p.r(G)p.r(U)p.r(U)p.r(A)p.r(G)p.r(G)p.r(G)p.r(U)p.r(G)p.r(C)p.r(C)p.r(A)p.r(C)p.r(A)p.r(U)p.r(C)p.r(U)p.r(U)p.d(G)p.d(G)}$$$RNA1{StrandType:ss}|RNA2{StrandType:as}$,36.7
6,RNA1{r(U)p.r(G)p.r(G)p.r(C)p.r(A)p.r(C)p.r(C)p.r(C)p.r(U)p.r(A)p.r(A)p.r(C)p.r(A)p.r(U)p.r(C)p.r(U)p.r(A)p.r(C)p.r(G)p.d(T)p.d(T)}|RNA2{r(C)p.r(G)p.r(U)p.r(A)p.r(G)p.r(A)p.r(U)p.r(G)p.r(U)p.r(U)p.r(A)p.r(G)p.r(G)p.r(G)p.r(U)p.r(G)p.r(C)p.r(C)p.r(A)p.d(C)p.d(A)}$$$RNA1{StrandType:ss}|RNA2{StrandType:as}$,25.1
7,RNA1{r(A)p.r(C)p.r(A)p.r(G)p.r(A)p.r(C)p.r(A)p.r(U)p.r(C)p.r(A)p.r(U)p.r(C)p.r(C)p.r(G)p.r(G)p.r(A)p.r(A)p.r(G)p.r(C)p.d(T)p.d(T)}|RNA2{r(G)p.r(C)p.r(U)p.r(U)p.r(C)p.r(C)p.r(G)p.r(G)p.r(A)p.r(U)p.r(G)p.r(A)p.r(U)p.r(G)p.r(U)p.r(C)p.r(U)p.r(G)p.r(U)p.d(G)p.d(T)}$$$RNA1{StrandType:ss}|RNA2{StrandType:as}$,34.9
8,RNA1{r(C)p.r(A)p.r(C)p.r(C)p.r(C)p.r(G)p.r(C)p.r(C)p.r(G)p.r(G)p.r(U)p.r(G)p.r(G)p.r(A)p.r(C)p.r(G)p.r(A)p.r(C)p.r(C)p.d(T)p.d(T)}|RNA2{r(G)p.r(G)p.r(U)p.r(C)p.r(G)p.r(U)p.r(C)p.r(C)p.r(A)p.r(C)p.r(C)p.r(G)p.r(G)p.r(C)p.r(G)p.r(G)p.r(G)p.r(U)p.r(G)p.d(G)p.d(A)}$$$RNA1{StrandType:ss}|RNA2{StrandType:as}$,25.4
9,RNA1{r(A)p.r(G)p.r(C)p.r(A)p.r(A)p.r(G)p.r(G)p.r(G)p.r(G)p.r(A)p.r(A)p.r(G)p.r(G)p.r(A)p.r(U)p.r(C)p.r(G)p.r(G)p.r(G)p.d(T)p.d(T)}|RNA2{r(C)p.r(C)p.r(C)p.r(G)p.r(A)p.r(U)p.r(C)p.r(C)p.r(U)p.r(U)p.r(C)p.r(C)p.r(C)p.r(C)p.r(U)p.r(U)p.r(G)p.r(C)p.r(U)p.d(C)p.d(T)}$$$RNA1{StrandType:ss}|RNA2{StrandType:as}$,41.2
10,RNA1{r(U)p.r(G)p.r(G)p.r(C)p.r(C)p.r(G)p.r(A)p.r(G)p.r(U)p.r(A)p.r(C)p.r(U)p.r(G)p.r(C)p.r(G)p.r(U)p.r(G)p.r(A)p.r(A)p.d(T)p.d(T)}|RNA2{r(U)p.r(U)p.r(C)p.r(A)p.r(C)p.r(G)p.r(C)p.r(A)p.r(G)p.r(U)p.r(A)p.r(C)p.r(U)p.r(C)p.r(G)p.r(G)p.r(C)p.r(C)p.r(A)p.d(G)p.d(C)}$$$RNA1{StrandType:ss}|RNA2{StrandType:as}$,65.2
11,RNA1{r(G)p.r(A)p.r(C)p.r(G)p.r(A)p.r(G)p.r(G)p.r(G)p.r(C)p.r(G)p.r(A)p.r(U)p.r(C)p.r(U)p.r(A)p.r(U)p.r(A)p.r(C)p.r(A)p.d(T)p.d(T)}|RNA2{r(U)p.r(G)p.r(U)p.r(A)p.r(U)p.r(A)p.r(G)p.r(A)p.r(U)p.r(C)p.r(G)p.r(C)p.r(C)p.r(C)p.r(U)p.r(C)p.r(G)p.r(U)p.r(C)p.d(C)p.d(A)}$$$RNA1{StrandType:ss}|RNA2{StrandType:as}$,64.3
12,RNA1{r(C)p.r(G)p.r(U)p.r(G)p.r(G)p.r(A)p.r(C)p.r(G)p.r(C)p.r(C)p.r(U)p.r(C)p.r(C)p.r(G)p.r(U)p.r(G)p.r(A)p.r(U)p.r(G)p.d(T)p.d(T)}|RNA2{r(C)p.r(A)p.r(U)p.r(C)p.r(A)p.r(C)p.r(G)p.r(G)p.r(A)p.r(G)p.r(G)p.r(C)p.r(G)p.r(U)p.r(C)p.r(C)p.r(A)p.r(C)p.r(G)p.d(T)p.d(T)}$$$RNA1{StrandType:ss}|RNA2{StrandType:as}$,79.4
13,RNA1{r(G)p.r(G)p.r(A)p.r(A)p.r(G)p.r(G)p.r(A)p.r(U)p.r(C)p.r(G)p.r(G)p.r(G)p.r(A)p.r(G)p.r(U)p.r(A)p.r(C)p.r(A)p.r(C)p.d(T)p.d(T)}|RNA2{r(G)p.r(U)p.r(G)p.r(U)p.r(A)p.r(C)p.r(U)p.r(C)p.r(C)p.r(C)p.r(G)p.r(A)p.r(U)p.r(C)p.r(C)p.r(U)p.r(U)p.r(C)p.r(C)p.d(C)p.d(C)}$$$RNA1{StrandType:ss}|RNA2{StrandType:as}$,56.5
14,RNA1{r(C)p.r(C)p.r(U)p.r(G)p.r(A)p.r(G)p.r(U)p.r(G)p.r(U)p.r(G)p.r(A)p.r(U)p.r(C)p.r(U)p.r(C)p.r(C)p.r(C)p.r(U)p.r(C)p.d(T)p.d(T)}|RNA2{r(G)p.r(A)p.r(G)p.r(G)p.r(G)p.r(A)p.r(G)p.r(A)p.r(U)p.r(C)p.r(A)p.r(C)p.r(A)p.r(C)p.r(U)p.r(C)p.r(A)p.r(G)p.r(G)p.d(A)p.d(G)}$$$RNA1{StrandType:ss}|RNA2{StrandType:as}$,58.4
15,RNA1{r(C)p.r(G)p.r(C)p.r(C)p.r(U)p.r(C)p.r(C)p.r(G)p.r(U)p.r(G)p.r(A)p.r(U)p.r(G)p.r(U)p.r(A)p.r(C)p.r(A)p.r(G)p.r(G)p.d(T)p.d(T)}|RNA2{r(C)p.r(C)p.r(U)p.r(G)p.r(U)p.r(A)p.r(C)p.r(A)p.r(U)p.r(C)p.r(A)p.r(C)p.r(G)p.r(G)p.r(A)p.r(G)p.r(G)p.r(C)p.r(G)p.d(T)p.d(C)}$$$RNA1{StrandType:ss}|RNA2{StrandType:as}$,36.4
16,RNA1{r(G)p.r(A)p.r(A)p.r(G)p.r(G)p.r(A)p.r(U)p.r(C)p.r(G)p.r(G)p.r(G)p.r(A)p.r(G)p.r(U)p.r(A)p.r(C)p.r(A)p.r(C)p.r(A)p.d(T)p.d(T)}|RNA2{r(U)p.r(G)p.r(U)p.r(G)p.r(U)p.r(A)p.r(C)p.r(U)p.r(C)p.r(C)p.r(C)p.r(G)p.r(A)p.r(U)p.r(C)p.r(C)p.r(U)p.r(U)p.r(C)p.d(C)p.d(C)}$$$RNA1{StrandType:ss}|RNA2{StrandType:as}$,74.3
17,RNA1{r(C)p.r(U)p.r(A)p.r(C)p.r(G)p.r(A)p.r(C)p.r(G)p.r(A)p.r(C)p.r(U)p.r(A)p.r(C)p.r(U)p.r(A)p.r(C)p.r(G)p.r(G)p.r(G)p.d(T)p.d(T)}|RNA2{r(C)p.r(C)p.r(C)p.r(G)p.r(U)p.r(A)p.r(G)p.r(U)p.r(A)p.r(G)p.r(U)p.r(C)p.r(G)p.r(U)p.r(C)p.r(G)p.r(U)p.r(A)p.r(G)p.d(A)p.d(A)}$$$RNA1{StrandType:ss}|RNA2{StrandType:as}$,69
18,RNA1{r(C)p.r(A)p.r(C)p.r(U)p.r(G)p.r(G)p.r(U)p.r(G)p.r(G)p.r(A)p.r(C)p.r(G)p.r(A)p.r(G)p.r(G)p.r(G)p.r(C)p.r(G)p.r(A)p.d(T)p.d(T)}|RNA2{r(U)p.r(C)p.r(G)p.r(C)p.r(C)p.r(C)p.r(U)p.r(C)p.r(G)p.r(U)p.r(C)p.r(C)p.r(A)p.r(C)p.r(C)p.r(A)p.r(G)p.r(U)p.r(G)p.d(T)p.d(C)}$$$RNA1{StrandType:ss}|RNA2{StrandType:as}$,75.5
19,RNA1{r(G)p.r(C)p.r(C)p.r(C)p.r(G)p.r(A)p.r(C)p.r(G)p.r(A)p.r(G)p.r(G)p.r(G)p.r(C)p.r(U)p.r(C)p.r(A)p.r(G)p.r(A)p.r(C)p.d(T)p.d(T)}|RNA2{r(G)p.r(U)p.r(C)p.r(U)p.r(G)p.r(A)p.r(G)p.r(C)p.r(C)p.r(C)p.r(U)p.r(C)p.r(G)p.r(U)p.r(C)p.r(G)p.r(G)p.r(G)p.r(C)p.d(G)p.d(C)}$$$RNA1{StrandType:ss}|RNA2{StrandType:as}$,33.6
20,RNA1{r(G)p.r(G)p.r(G)p.r(G)p.r(C)p.r(U)p.r(G)p.r(C)p.r(A)p.r(G)p.r(G)p.r(A)p.r(A)p.r(G)p.r(A)p.r(G)p.r(C)p.r(C)p.r(G)p.d(T)p.d(T)}|RNA2{r(C)p.r(G)p.r(G)p.r(C)p.r(U)p.r(C)p.r(U)p.r(U)p.r(C)p.r(C)p.r(U)p.r(G)p.r(C)p.r(A)p.r(G)p.r(C)p.r(C)p.r(C)p.r(C)p.d(T)p.d(T)}$$$RNA1{StrandType:ss}|RNA2{StrandType:as}$,47.6
